From patent publication US10533015B1, “Opioid receptor antagonist prodrugs” (Nirsum Laboratories, Inc., priority 2019, dated 2020)

Tests used:
[1] = Water; heating temp. 40 °C, obs. temp. 40 °C
MOR = target: T1, MOR (Homo sapiens, UniProt P35372); assay: Opioid receptor binding assay, MOR ([3H]DAMGO); details: MaxDose 10000 nM
T1 construct: expressed in transfected cells
Method: (§1) Receptor binding assays were performed to assess the ability of compounds to inhibit binding to radiolabeled ligand.
(§2) The stable cell lines were established and prepared cell membrane obtained using these cell lines.
(§3) 3) Assay Procedure 1) Transfer 1 μl of specified concentration compound to assay plate according to the plate map for nonspecific binding. Transfer 1 μl of DMSO to assay plate according to plate map for total binding. 2) Follow the plate map. Dispense 99 μl of membrane stocks into the plate. 3) Add 100 μl of radio ligand. 4) Seal the plates. Incubate at RT for 1 hour. 5) Soak the Unifilter-96 GF/C filter plates with 50 μl of 0.3% PEI per well for at least 0.5 hour at room temperature. 6) When binding assays are completed, filter the reaction mixture through GF/C plates using Perkin Elmer Filtermate Harvester, and then wash each plate for 4 times with cold wash buffer. 7) Dry the filter plates for 1 hour at 50 degrees. 8) After drying, seal the bottom of the filter plate wells using Perkin Elmer Unifilter-96 backing seal tape. Add 50 μl of Perkin Elmer Microscint 20 cocktail. Seal top of filter plates with Perkin Elmer TopSeal-A sealing film. 9) Count ^3H trapped on filter using Perkin Elmer MicroBeta2 Reader second day. 10) Analyze the data with GraphPad Prism 5. […]

KOR = target: T2, KOR (Homo sapiens, UniProt P41145); assay: Opioid receptor binding assay, KOR ([3H]Diprenorphine); details: MaxDose 10000 nM
T2 construct: expressed in transfected cells
Method: as §1, §2, §3

T1 sequence (P35372 whole entry): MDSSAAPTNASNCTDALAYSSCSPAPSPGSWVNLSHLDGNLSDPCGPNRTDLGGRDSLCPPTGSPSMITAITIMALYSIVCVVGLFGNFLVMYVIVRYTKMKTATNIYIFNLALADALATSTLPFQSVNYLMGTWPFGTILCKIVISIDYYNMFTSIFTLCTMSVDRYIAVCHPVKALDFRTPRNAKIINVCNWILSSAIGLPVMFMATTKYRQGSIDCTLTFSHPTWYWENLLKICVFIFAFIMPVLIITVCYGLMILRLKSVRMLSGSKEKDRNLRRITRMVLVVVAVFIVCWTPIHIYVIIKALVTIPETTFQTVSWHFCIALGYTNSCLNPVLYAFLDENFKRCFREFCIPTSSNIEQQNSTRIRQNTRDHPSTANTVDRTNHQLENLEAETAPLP
T2 sequence (P41145 whole entry): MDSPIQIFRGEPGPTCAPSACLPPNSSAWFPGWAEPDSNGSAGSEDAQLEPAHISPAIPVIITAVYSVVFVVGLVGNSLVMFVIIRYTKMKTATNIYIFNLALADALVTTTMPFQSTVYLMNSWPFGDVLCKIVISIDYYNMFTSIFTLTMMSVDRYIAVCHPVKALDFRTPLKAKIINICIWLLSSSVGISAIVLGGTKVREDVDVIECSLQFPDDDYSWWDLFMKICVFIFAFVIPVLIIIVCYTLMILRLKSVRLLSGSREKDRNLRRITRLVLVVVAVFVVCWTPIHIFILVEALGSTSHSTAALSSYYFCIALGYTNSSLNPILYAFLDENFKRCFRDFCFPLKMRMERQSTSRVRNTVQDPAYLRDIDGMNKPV

SMILES: C=C1CC[C@@]2(O)C3Cc4ccc(OCOC(=O)OCCCCCCCCCCCCCCCC)c5c4[C@@]2(CCN3CC2CC2)[C@H]1O5 [Compound 34, (((4aS,7aS,12bS)-3-(cyclopropylmethyl)-4a-hydroxy-7-methylene-2,3,4,4a,5,6,7,7a-octahydro-1H-4,12-methanobenzofuro[3,2-e]isoquinolin-9-yl)oxy)methyl hexadecyl carbonate]
- Equilibrium solubility (mg/mL) Water [1]: <0.001 mg/mL
- % Inh@MaxDose (MOR): 92.7%
- % Inh@MaxDose (KOR): 68.1%
